Values of other authors, collected in patent US6750064B2, “Methods of screening for possible solid forms” (S.S.C.I. Inc., priority 2000, dated 2004).

Conditions: two hours after the drug was administered

| concentration of novobiocin in dog plasma | SMILES |
| --- | --- |
| no drug detectable | CO[C@@H]1[C@@H](OC(N)=O)[C@@H](O)[C@H](Oc2ccc3c(O)c(NC(=O)c4ccc(O)c(CC=C(C)C)c4)c(=O)oc3c2C)OC1(C)C [crystalline novobiocin, novobiocin] |
| 29300 ng/mL | CO[C@@H]1[C@@H](OC(N)=O)[C@@H](O)[C@H](Oc2ccc3c(O)c(NC(=O)c4ccc(O)c(CC=C(C)C)c4)c(=O)oc3c2C)OC1(C)C [novobiocin amorphous form, novobiocin] |
